Experiments:
SMYD3 [1] = biological target: T1, SMYD3 (Homo sapiens (Human), UniProt Q9H7B4); experiment: SMYD3 cell assay (Trimethyl-MEKK2 In-Cell Western in 293T/17 cells); format: cell-based; conditions: read-out: SMYD3 Cell IC50*
How it was run: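 In-Cell Western readout: methanol-fixed cells stained for trimethyl-MEKK2 and flag tag, ratio per well normalized to DMSO and background controls.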

SMYD3 [2] = biological target: T1, SMYD3; experiment: SMYD3 biochemical assay (SPA, 3H-SAM methylation of MEKK2 protein substrate); conditions: read-out: SMYD3 Biochem IC50*
How it was run: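 SPA methyltransferase format: tag-cleaved human SMYD3, insect-cell GST-MEKK2 protein substrate, 3H-SAM donor, 30 min RT enzyme–compound preincubation, 100 uM cold SAM quench.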

T1 sequence (Q9H7B4 whole entry): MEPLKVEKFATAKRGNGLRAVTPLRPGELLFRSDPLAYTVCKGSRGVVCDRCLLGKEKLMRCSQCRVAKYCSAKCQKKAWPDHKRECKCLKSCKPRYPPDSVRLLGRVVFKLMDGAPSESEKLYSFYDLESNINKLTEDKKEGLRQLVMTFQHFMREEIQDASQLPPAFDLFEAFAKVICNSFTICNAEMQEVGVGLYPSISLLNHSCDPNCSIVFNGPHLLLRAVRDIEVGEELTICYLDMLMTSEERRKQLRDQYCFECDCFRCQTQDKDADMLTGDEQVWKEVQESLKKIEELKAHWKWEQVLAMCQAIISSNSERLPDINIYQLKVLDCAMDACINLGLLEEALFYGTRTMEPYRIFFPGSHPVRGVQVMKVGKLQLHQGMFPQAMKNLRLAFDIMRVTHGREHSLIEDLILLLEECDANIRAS

| SMILES | IC50 (SMYD3 [1]) | IC50 (SMYD3 [2]) |
| --- | --- | --- |
| O=C(N[C@H]1C[C@H]2CC[C@@H](C1)N2S(=O)(=O)N1CC2CCC(C1)N2Cc1ccccc1)c1cc(C2CC2)on1 [compound 904, N-((1R,3r,5S)-8-((8-benzyl-3,8-diazabicyclo[3.2.1]octan-3-yl)sulfonyl)-8-azabicyclo[3.2.1]octan-3-yl)-5-cyclopropylisoxazole-3-carboxamide] | 395 nM | 16.9 nM |
| C[C@H](NC1CCN(S(=O)(=O)N2CC[C@H](NC(=O)c3cc(C4CC4)on3)C[C@@H]2C)CC1)c1ccccc1 [compound 905, 5-cyclopropyl-N-((2S,4S)-2-methyl-1-((4-(((S)-1-phenylethyl)amino)piperidin-1-yl)sulfonyl)piperidin-4-yl)isoxazole-3-carboxamide] | 331 nM | 17.1 nM |
| O=C(N[C@H]1C[C@H]2CC[C@@H](C1)N2S(=O)(=O)N1CCC(N2CCCC2)CC1)c1cc(C2CC2)on1 [compound 906, 5-cyclopropyl-N-((1R,3r,5S)-8-((4-(pyrrolidin-1-yl)piperidin-1-yl)sulfonyl)-8-azabicyclo[3.2.1]octan-3-yl)isoxazole-3-carboxamide] | 229 nM | 17.1 nM |
| CC1CN(S(=O)(=O)N2[C@@H]3CC[C@H]2C[C@@H](NC(=O)c2cc(C4CC4)on2)C3)C(C)CN1 (stereo partly drawn) [compound 907, 5-cyclopropyl-N-((1R,3r,5S)-8-((2,5-dimethylpiperazin-1-yl)sulfonyl)-8-azabicyclo[3.2.1]octan-3-yl)isoxazole-3-carboxamide] | 238 nM | 17.7 nM |
| C[C@H]1C[C@@H](NC(=O)c2cc(C3CC3)on2)CCN1S(=O)(=O)N1CCC(NCCN2CCOCC2)CC1 [compound 908, 5-cyclopropyl-N-((2S,4S)-2-methyl-1-((4-((2-morpholinoethyl)amino)piperidin-1-yl)sulfonyl)piperidin-4-yl)isoxazole-3-carboxamide] | 253 nM | 18.4 nM |
| C[C@H]1C[C@@H](NC(=O)c2cc(C3CC3)on2)CCN1S(=O)(=O)[C@@H]1CCCNC1 [compound 910, 5-cyclopropyl-N-((2S,4S)-2-methyl-1-(((R)-piperidin-3-yl)sulfonyl)piperidin-4-yl)isoxazole-3-carboxamide] | 186 nM | 19 nM |
| CC(C)c1cc(C(=O)N[C@H]2C[C@H]3CC[C@@H](C2)N3S(=O)(=O)N2CCC(N)CC2)no1 [compound 911, N-((1R,3r,5S)-8-((4-aminopiperidin-1-yl)sulfonyl)-8-azabicyclo[3.2.1]octan-3-yl)-5-isopropylisoxazole-3-carboxamide] | 144 nM | 20.5 nM |
| O=C(N[C@H]1C[C@H]2CC[C@@H](C1)N2S(=O)(=O)N1CCC(NCCCN2CCOCC2)CC1)c1cc(C2CC2)on1 [compound 912, 5-cyclopropyl-N-((1R,3r,5S)-8-((4-((3-morpholinopropyl)amino)piperidin-1-yl)sulfonyl)-8-azabicyclo[3.2.1]octan-3-yl)isoxazole-3-carboxamide] | 316 nM | 20.9 nM |
| C[C@H]1C[C@@H](NC(=O)c2cc(C3CC3)on2)CCN1S(=O)(=O)[C@H]1CCCNC1 [compound 913, 5-cyclopropyl-N-((2S,4S)-2-methyl-1-(((S)-piperidin-3-yl)sulfonyl)piperidin-4-yl)isoxazole-3-carboxamide] | 255 nM | 21.6 nM |
| O=C(N[C@H]1C[C@H]2CC[C@@H](C1)N2S(=O)(=O)N1CC2CCC(C1)N2CCCC(F)(F)F)c1cc(C2CC2)on1 [compound 914, 5-cyclopropyl-N-((1R,3r,5S)-8-((8-(4,4,4-trifluorobutyl)-3,8-diazabicyclo[3.2.1]octan-3-yl)sulfonyl)-8-azabicyclo[3.2.1]octan-3-yl)isoxazole-3-carboxamide] | 299 nM | 22.9 nM |
| C[C@H]1CN(S(=O)(=O)N2[C@@H]3CC[C@H]2C[C@@H](NC(=O)c2cc(C4CC4)on2)C3)[C@@H](C)CN1 [compound 915, 5-cyclopropyl-N-((1R,3S,5S)-8-(((2S,5S)-2,5-dimethylpiperazin-1-yl)sulfonyl)-8-azabicyclo[3.2.1]octan-3-yl)isoxazole-3-carboxamide] | 231 nM | 23.2 nM |
| COCCN(C)C1CCN(S(=O)(=O)N2[C@@H]3CC[C@H]2C[C@@H](NC(=O)c2cc(C4CC4)on2)C3)CC1 [compound 916, 5-cyclopropyl-N-((1R,3r,5S)-8-((4-((2-methoxyethyl)(methyl)amino)piperidin-1-yl)sulfonyl)-8-azabicyclo[3.2.1]octan-3-yl)isoxazole-3-carboxamide] | 247 nM | 23.3 nM |
| CN(CCN1CCCC1)C1CCN(S(=O)(=O)N2[C@@H]3CC[C@H]2C[C@@H](NC(=O)c2cc(C4CC4)on2)C3)CC1 [compound 917, 5-cyclopropyl-N-((1R,3r,5S)-8-((4-(methyl(2-(pyrrolidin-1-yl)ethyl)amino)piperidin-1-yl)sulfonyl)-8-azabicyclo[3.2.1]octan-3-yl)isoxazole-3-carboxamide] | 379 nM | 24.9 nM |
| O=C(N[C@H]1C[C@H]2CC[C@@H](C1)N2S(=O)(=O)N1CCC(NCCC(F)(F)F)CC1)c1cc(C2CC2)on1 [compound 918, 5-cyclopropyl-N-((1R,3r,5S)-8-((4-((3,3,3-trifluoropropyl)amino)piperidin-1-yl)sulfonyl)-8-azabicyclo[3.2.1]octan-3-yl)isoxazole-3-carboxamide] | 148 nM | 25 nM |
| O=C(N[C@H]1C[C@H]2CC[C@@H](C1)N2S(=O)(=O)C[C@@H]1CCCCN1)c1cc(C2CC2)on1 [compound 919, 5-cyclopropyl-N-((1R,3S,5S)-8-((((S)-piperidin-2-yl)methyl)sulfonyl)-8-azabicyclo[3.2.1]octan-3-yl)isoxazole-3-carboxamide] | 243 nM | 25.4 nM |
| O=C(N[C@H]1C[C@H]2CC[C@@H](C1)N2S(=O)(=O)[C@H]1CC[C@@H](NCCN2CCOCC2)CC1)c1cc(C2CC2)on1 [compound 920, 5-cyclopropyl-N-((1R,3R,5S)-8-(((1s,4S)-4-((2-morpholinoethyl)amino)cyclohexyl)sulfonyl)-8-azabicyclo[3.2.1]octan-3-yl)isoxazole-3-carboxamide] | 499 nM | 26.6 nM |
| CN(CCO)C1CCN(CCS(=O)(=O)N2[C@@H]3CC[C@H]2C[C@@H](NC(=O)c2cc(C4CC4)on2)C3)C1 (stereo partly drawn) [compound 921, 5-cyclopropyl-N-((1R,3r,5S)-8-((2-(3-((2-hydroxyethyl)(methyl)amino)pyrrolidin-1-yl)ethyl)sulfonyl)-8-azabicyclo[3.2.1]octan-3-yl)isoxazole-3-carboxamide] | 373 nM | 27.7 nM |
| O=C(N[C@H]1C[C@H]2CC[C@@H](C1)N2S(=O)(=O)N1CCC(NCCN2CCCC2)CC1)c1cc(C2CC2)on1 [compound 922, 5-cyclopropyl-N-((1R,3r,5S)-8-((4-((2-(pyrrolidin-1-yl)ethyl)amino)piperidin-1-yl)sulfonyl)-8-azabicyclo[3.2.1]octan-3-yl)isoxazole-3-carboxamide] | 282 nM | 28.1 nM |
| C[C@@H](NC1CCN(S(=O)(=O)N2[C@@H]3CC[C@H]2C[C@@H](NC(=O)c2cc(C4CC4)on2)C3)CC1)c1ccccc1 [compound 923, 5-cyclopropyl-N-((1R,3R,5S)-8-((4-(((R)-1-phenylethyl)amino)piperidin-1-yl)sulfonyl)-8-azabicyclo[3.2.1]octan-3-yl)isoxazole-3-carboxamide] | 310 nM | 28.6 nM |
| O=C(N[C@H]1C[C@H]2CC[C@@H](C1)N2S(=O)(=O)N1CCC(NCc2c(F)cccc2F)CC1)c1cc(C2CC2)on1 [compound 924, 5-cyclopropyl-N-((1R,3r,5S)-8-((4-((2,6-difluorobenzyl)amino)piperidin-1-yl)sulfonyl)-8-azabicyclo[3.2.1]octan-3-yl)isoxazole-3-carboxamide] | 670 nM | 28.9 nM |
| CC(C)C1CN(S(=O)(=O)N2[C@@H]3CC[C@H]2C[C@@H](NC(=O)c2cc(C4CC4)on2)C3)CCN1 (stereo partly drawn) [compound 925, 5-cyclopropyl-N-((1R,3r,5S)-8-((3-isopropylpiperazin-1-yl)sulfonyl)-8-azabicyclo[3.2.1]octan-3-yl)isoxazole-3-carboxamide] | 340 nM | 29.9 nM |
| CN1CCC[C@@H](S(=O)(=O)N2[C@@H]3CC[C@H]2C[C@@H](NC(=O)c2cc(C4CC4)on2)C3)C1 [compound 926, 5-cyclopropyl-N-((1R,3R,5S)-8-(((R)-1-methylpiperidin-3-yl)sulfonyl)-8-azabicyclo[3.2.1]octan-3-yl)isoxazole-3-carboxamide] | 209 nM | 30 nM |
| C[C@H](NC1CCN(S(=O)(=O)N2[C@@H]3CC[C@H]2C[C@@H](NC(=O)c2cc(C4CC4)on2)C3)CC1)c1ccccc1 [compound 927, 5-cyclopropyl-N-((1R,3S,5S)-8-((4-(((S)-1-phenylethyl)amino)piperidin-1-yl)sulfonyl)-8-azabicyclo[3.2.1]octan-3-yl)isoxazole-3-carboxamide] | 403 nM | 30.9 nM |
| CC(C)NC1CCN(S(=O)(=O)N2[C@@H]3CC[C@H]2C[C@@H](NC(=O)c2cc(C4CC4)on2)C3)CC1 [compound 928, 5-cyclopropyl-N-((1R,3r,5S)-8-((4-(isopropylamino)piperidin-1-yl)sulfonyl)-8-azabicyclo[3.2.1]octan-3-yl)isoxazole-3-carboxamide] | 512 nM | 36.2 nM |
| NCc1ccc(S(=O)(=O)N2[C@@H]3CC[C@H]2C[C@@H](NC(=O)c2cc(C4CC4)on2)C3)cc1 [compound 929, N-((1R,3r,5S)-8-((4-(aminomethyl)phenyl)sulfonyl)-8-azabicyclo[3.2.1]octan-3-yl)-5-cyclopropylisoxazole-3-carboxamide] | ≥ 10000 nM | 36.8 nM |
